In patent US11111237B2, “Bicyclic compound and use thereof” (SK BIOPHARMACEUTICALS CO., LTD., priority 2019, dated 2021):

Biological target: PRMT5-MEP50 enzyme complex (Homo sapiens (Human), UniProt O14744)
Test: PRMT5 enzyme activity in vitro assay (methylation of histone H4R3, ELISA absorbance at 450 nm)
Type: biochemical
Settings: SAM, histone H4 peptide, room temperature 2 hours, 8 points from 10 μM to 0.128 nM
Summary of the method: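 IC50 was derived from ELISA absorbance at 450 nm, using primary and HRP antibodies against H4R3 methylation on immobilised histone H4 peptide (residues 1-20). Compounds (10 μM to 0.128 nM, 8 points, 1:5) were incubated 2 h at room temperature with the PRMT5-MEP50 complex and SAM, diluted to 5 μg/mL and 2 μM respectively.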

PRMT5-MEP50 enzyme complex, sequence (O14744 2-637): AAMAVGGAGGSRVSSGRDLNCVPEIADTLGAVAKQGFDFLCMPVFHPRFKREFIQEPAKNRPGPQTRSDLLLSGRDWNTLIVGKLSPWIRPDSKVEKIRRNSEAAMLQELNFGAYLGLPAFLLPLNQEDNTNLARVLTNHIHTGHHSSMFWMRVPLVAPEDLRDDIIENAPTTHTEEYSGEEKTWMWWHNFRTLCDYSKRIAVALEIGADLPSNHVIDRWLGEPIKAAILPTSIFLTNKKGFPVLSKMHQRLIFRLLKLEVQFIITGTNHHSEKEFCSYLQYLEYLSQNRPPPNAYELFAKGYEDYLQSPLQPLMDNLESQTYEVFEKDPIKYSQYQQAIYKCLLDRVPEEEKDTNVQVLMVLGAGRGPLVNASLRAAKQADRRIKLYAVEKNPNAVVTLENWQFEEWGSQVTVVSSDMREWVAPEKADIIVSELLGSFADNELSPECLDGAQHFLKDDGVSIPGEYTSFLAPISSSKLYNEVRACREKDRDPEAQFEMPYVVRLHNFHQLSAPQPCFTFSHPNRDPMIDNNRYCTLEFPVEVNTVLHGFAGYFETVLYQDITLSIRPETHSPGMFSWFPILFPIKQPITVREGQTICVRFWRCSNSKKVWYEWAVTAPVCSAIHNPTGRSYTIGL
PRMT5-MEP50 enzyme complex, sequence (Q9BQA1 2-342 partner): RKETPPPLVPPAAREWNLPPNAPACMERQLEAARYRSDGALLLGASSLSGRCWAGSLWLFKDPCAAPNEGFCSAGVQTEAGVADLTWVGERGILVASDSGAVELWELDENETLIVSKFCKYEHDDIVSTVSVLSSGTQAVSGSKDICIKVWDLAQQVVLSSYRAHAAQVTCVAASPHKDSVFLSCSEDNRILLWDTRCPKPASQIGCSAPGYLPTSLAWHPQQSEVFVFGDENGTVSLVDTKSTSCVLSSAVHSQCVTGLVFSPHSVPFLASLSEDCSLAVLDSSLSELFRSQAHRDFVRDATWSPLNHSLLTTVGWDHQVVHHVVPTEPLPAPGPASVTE

Row | SMILES | IC50
1 | CN1CCN(C[C@H](O)CN2CCc3ccccc3C2)C(=O)c2ccc(CC3CCCCC3)cc21 [Example 117, 8-(cyclohexylmethyl)-4-[(2R)-3-(3,4-dihydro-1H-isoquinolin-2-yl)-2-hydroxy-propyl]-1-methyl-2,3-dihydro-1,4-benzodiazepin-5-one] | 100 to 1000 nM
2 | CC1(C)CN(C[C@H](O)CN2CCc3ccccc3C2)C(=O)c2ccc(CN3CCN(C4COC4)CC3)cc2O1 [Example 182, 4-[(2R)-3-(3,4-dihydro-1H-isoquinolin-2-yl)-2-hydroxy-propyl]-2,2-dimethyl-8-[[4-(oxetan-3-yl)piperazin-1-yl]methyl]-3H-1,4-benzoxazepin-5-one] | 100 to 1000 nM
3 | C[C@@H]1CN(C[C@H](O)CN2CCc3ccccc3C2)C(=O)c2ccc(CN3CC4(COC4)C3)cc2O1 [Example 250, (2R)-4-[(2R)-3-(3,4-dihydro-1H-isoquinolin-2-yl)-2-hydroxypropyl]-2-methyl-8-(2-oxa-6-azaspiro[3.3]heptan-6-ylmethyl)-2,3-dihydro-1,4-benzoxazepin-5-one] | 100 to 1000 nM
4 | C[C@H]1CN(C[C@H](O)CN2CCc3ccccc3C2)C(=O)c2ccc(OC3CCN(C)CC3)cc2O1 [Example 146, (2S)-4-[(2R)-3-(3,4-dihydro-1H-isoquinolin-2-yl)-2-hydroxypropyl]-2-methyl-8-[(1-methyl-4-piperidyl)oxy]-2,3-dihydro-1,4-benzoxazepin-5-one] | 100 to 1000 nM
5 | O=C1c2ccc(OCC3CCCO3)cc2OCCN1C[C@H](O)CN1CCc2ccccc2C1 (stereo partly drawn) [Example 67, 4-[(2R)-3-(3,4-dihydro-1H-isoquinolin-2-yl)-2-hydroxy-propyl]-8-(tetrahydrofuran-2-ylmethoxy)-2,3-dihydro-1,4-benzoxazepin-5-one] | 100 to 1000 nM
6 | CC(C)N1CC(Oc2ccc3c(c2)OCCN(C[C@H](O)CN2CCc4ccccc4C2)C3=O)C1 [Example 95, 4-[(2R)-3-(3,4-dihydro-1H-isoquinolin-2-yl)-2-hydroxy-propyl]-8-(1-isopropylazetidin-3-yl)oxy-2,3-dihydro-1,4-benzoxazepin-5-one] | 100 to 1000 nM

Now from value to compound:

Row | IC50 | SMILES
7 | 100 to 1000 nM | C[C@@H]1CN(C[C@H](O)CN2CCc3ccccc3C2)C(=O)c2ccc(CN3CCC4(CC3)COC4)cc2O1 [Example 252, (2R)-4-[(2R)-3-(3,4-dihydro-1H-isoquinolin-2-yl)-2-hydroxypropyl]-2-methyl-8-(2-oxa-7-azaspiro[3.5]nonan-7-ylmethyl)-2,3-dihydro-1,4-benzoxazepin-5-one]
8 | 100 to 1000 nM | O=C1c2ccc(OC3CCN(CCO)CC3)cc2OCCN1C[C@H](O)CN1CCc2ccccc2C1 [Example 162, 4-[(2R)-3-(3,4-dihydro-1H-isoquinolin-2-yl)-2-hydroxy-propyl]-8-[[1-(2-hydroxyethyl)-4-piperidyl]oxy]-2,3-dihydro-1,4-benzoxazepin-5-one]
9 | 100 to 1000 nM | O=C1c2ccc(OCc3cccnc3)cc2OCCN1C[C@H](O)CN1CCc2ccccc2C1 [Example 56, 4-[(2R)-3-(3,4-dihydro-1H-isoquinolin-2-yl)-2-hydroxy-propyl]-8-(3-pyridylmethoxy)-2,3-dihydro-1,4-benzoxazepin-5-one]
10 | 1 to 100 nM | CN1CCCC(COc2ccc3c(c2)N(C)CCN(C[C@H](O)CN2CCc4ccccc4C2)C3=O)C1 (stereo partly drawn) [Example 133, 4-[(2R)-3-(3,4-dihydro-1H-isoquinolin-2-yl)-2-hydroxy-propyl]-1-methyl-8-[(1-methyl-3-piperidyl)methoxy]-2,3-dihydro-1,4-benzodiazepin-5-one]
11 | 1 to 100 nM | CN1CCN(C[C@H](O)CN2CCc3ccccc3C2)C(=O)c2ccc(CN3CCOCC3)cc21 [Example 115, 4-[(2R)-3-(3,4-dihydro-1H-isoquinolin-2-yl)-2-hydroxy-propyl]-1-methyl-8-(morpholinomethyl)-2,3-dihydro-1,4-benzodiazepin-5-one]
12 | 1 to 100 nM | O=C1c2ccc(OCc3ccncc3)cc2OCCN1C[C@H](O)CN1CCc2ccccc2C1 [Example 57, 4-[(2R)-3-(3,4-dihydro-1H-isoquinolin-2-yl)-2-hydroxy-propyl]-8-(4-pyridylmethoxy)-2,3-dihydro-1,4-benzoxazepin-5-one]
